Data on one compound can be found in patent US6720136B2, “Solid phase quenching systems” (V. I Technologies, Inc., priority 1998, dated 2004).

This assay in a line: Quenching of ethyleneimine dimer in whole CPD human blood, EID concentration in plasma and RBC fractions by HPLC. How it is done:
50 μl of 120 mM ethyleneimine dimer (EID, PEN102) in 0.25 M NaH2PO4 was added to 0.9 ml of whole human CPD blood (final concentration of EID was 6 mM, 6 μmole total), and incubated at 23° C. for 4 hours. At the end of the 4-hour incubation period, 68 mg (50 μmole-equivalents of phosphothiomonoester groups) of ArgoPore-Thiophosphate support (prepared as described in Example 2) was added. In the parallel experiment, 50 μl of 1 M Na2S2O3 (final concentration 50 mM) was added to same amount of EID treated blood. Both samples were allowed to incubate for 2 hours at 23° C. The red blood cell (RBC) and plasma fraction of the blood were separated by centrifugation (10,000 rpm, 5 min), and the RBCs were opened by adding 9 volumes of water. The concentration of EID was determined in the RBC fraction and in the plasma fraction of the blood by HPLC (FIG. 6).

For the compound `O=S(O)(O)=S` [sodium thiosulfate], where the note is “6 mM EID for 4 hours at 23° C., then quencher (50 μmole-equivalents support or 50 mM Na2S2O3) for 2 hours at 23° C., plasma”, the “concentration of ethyleneimine dimer in plasma fraction after quenching” value is 6.8 µg/mL. Further, the “concentration of ethyleneimine dimer in red blood cell fraction after quenching” value (6 mM EID for 4 hours at 23° C., then quencher (50 μmole-equivalents support or 50 mM Na2S2O3) for 2 hours at 23° C., red blood cells) was 2.2 µg/mL. Further, for the setting “6 mM EID, quencher 2 hours at 23° C.”, the “quenching of ethyleneimine dimer in blood (in words)” value is “capable of quenching ethyleneimine dimer”.
